The structures appear in SMILES notation.

This is an account of results in patent US20120202799A1, “Condensed Azepine Derivatives As Bromodomain Inhibitors” (priority 2009, published 2012).

Test system in one series: not given
Experiment: not given
Details: not given
As for `COc1ccc(C2=NC(NC(=O)Nc3ccc(C(=O)c4ccccc4)cc3)c3nnc(C)n3-c3ccccc32)cc1` (centres unmarked), the melting point is 225 °C. On the same count and under the same terms, in the case of `Cc1nnc2n1-c1ccc(Br)cc1C(c1ccccc1F)=NC2NC(=O)OCc1ccccc1` (centres unmarked) [Example 17, phenylmethyl [8-bromo-6-(2-fluorophenyl)-1-methyl-4H-[1,2,4]triazolo[4,3-a][1,4]benzodiazepin-4-yl]carbamate] it was 160 to 170 °C. Same read-out and setting: in the case of `COc1ccc2cc(C(=O)NC3N=C(c4ccccc4)c4ccccc4-n4c(C)nnc43)[nH]c2c1` (centres unmarked) [Example 53, 6-(methyloxy)-N-(1-methyl-6-phenyl-4H-[1,2,4]-triazolo[4,3-a][1,4]benzodiazepin-4-yl)-1H-indole-2-carboxamide] it was 160 to 170 °C. For `Cc1nnc2n1-c1ccccc1C(c1ccccc1)=NC2NC(=O)Nc1ccccc1` (centres unmarked) [Example 70, N-(1-methyl-6-phenyl-4H-[1,2,4]triazolo[4,3-a][1,4]benzodiazepin-4-yl)-N′-phenyl urea], the melting point is greater than 260 °C.

A further series relates to TNFα levels in LPS stimulated whole blood. As to the kind of experiment: LPS Stimulated Whole Blood Measuring TNFα Levels Assay. As to conditions: LPS final concentration 200 ng/ml, 24 hours at 37 degrees, TNFα by immunoassay, read-out: pIC50 (TNFα levels) (converted). It is filed as cell-based. As for the experimental part: Activation of monocytic cells by agonists of toll-like receptors such as bacterial lipopolysaccharide (LPS) results in production of key inflammatory mediators including TNFα. Such pathways are widely considered to be central to the pathophysiology of a range of auto-immune and inflammatory disorders.
Compounds to be tested are diluted to give a range of appropriate concentrations and 1 ul of the dilution stocks is added to wells of a 96 plate. Following addition of whole blood (130 μl) the plates are incubated at 37 degrees (5% CO2) for 30 min before the addition of 10 ul of 2.8 ug/ml LPS, diluted in complete RPMI 1640 (final concentration=200 ng/ml), to give a total volume of 140 μl per well. After further incubation for 24 hours at 37 degrees, 140 μl of PBS are added to each well. The plates are sealed, shaken for 10 minutes and then centrifuged (2500 rpm×10 min). 100 μl of the supernatant are removed and TNFα levels assayed by immunoassay (typically by MesoScale Discovery technology) either immediately or following storage at −20 degrees. Dose response curves for each compound was generated from the data and an IC50 value was calculated.
Take `Cc1nnc2n1-c1ccccc1C(c1ccccc1)=NC2NC(=O)OCc1ccccc1` (single isomer, unassigned; (+)) [Example 27, (+)-phenylmethyl (1-methyl-6-phenyl-4H-[1,2,4]triazolo[4,3-a][1,4]benzodiazepin-4-yl)carbamate]: the IC50 is no more than 10 µM. On the same count and under the same terms, in the case of `CCOC(=O)NC1N=C(c2ccc(Cl)cc2)c2ccccc2-n2c(C)nnc21` (single isomer, unassigned; (+)) [Example 28, (+)-ethyl [6-(4-chlorophenyl)-1-methyl-4H-[1,2,4]triazolo[4,3-a][1,4]benzodiazepin-4-yl]carbamate] it was no more than 10 µM. Still for that read-out and setting: in the case of `CCOC(=O)NC1N=C(c2ccccc2)c2ccccc2-n2c(C)nnc21` (single isomer, unassigned; (+)) [Example 32, (+)-ethyl 1-methyl-6-phenyl-4H-[1,2,4]triazolo[4,3-a][1,4]benzodiazepin-4-ylcarbamate] it was no more than 10 µM. Same read-out and setting: in the case of `COc1ccc2cc(C(=O)NC3N=C(c4ccccc4)c4ccccc4-n4c(C)nnc43)[nH]c2c1` (centres unmarked) [Example 53, 6-(methyloxy)-N-(1-methyl-6-phenyl-4H-[1,2,4]-triazolo[4,3-a][1,4]benzodiazepin-4-yl)-1H-indole-2-carboxamide] it was no more than 10 µM; in that of `Cc1nnc2n1-c1ccccc1C(c1ccccc1)=NC2NC(=O)/C=C/c1ccccc1` (centres unmarked) [Example 64, (2E)-N-(1-methyl-6-phenyl-4H-[1,2,4]triazolo[4,3-a][1,4]benzodiazepin-4-yl)-3-phenyl-2-propenamide], no more than 10 µM; in that of `Cc1nnc2n1-c1ccccc1C(c1ccccc1)=NC2NC(=O)/C=C/c1ccc(F)cc1` (centres unmarked) [Example 65, (2E)-3-(4-fluorophenyl)-N-(1-methyl-6-phenyl-4H-[1,2,4]triazolo[4,3-a][1,4]benzodiazepin-4-yl)-2-propenamide], no more than 10 µM.

The target in another series is T1, Bromodomain 2, 3 and 4 (BRD2, BRD3 and BRD4).
T1 construct: fused on or other part: six-His tag at the N-terminus
As to the kind of experiment: Fluorescence Anisotropy Binding Assay. The arrangement: species or system Human. As to conditions: result stated for one or more of BRD2, BRD3 and BRD4, target not specified per compound. As for the experimental part:
All data was normalized to the mean of 16 high and 16 low control wells on each plate. A four parameter curve fit of the following form was then applied:
y=a+((b−a)/(1+(10̂x/10̂c)̂d)
The His-tagged Bromodomain was extracted from E. coli cells using 0.1 mg/ml lysozyme and sonication. […] Further purification was completed by Superdex 200 prep grade size exclusion column. Purified protein was stored at −80 C in 20 mM HEPES pH 7.5 and 100 mM NaCl.
In general terms: Fluorescence polarisation rises when a labelled molecule tumbles more slowly, as on binding a larger partner.
Consider `Cc1nnc2n1-c1ccccc1C(c1ccccc1)=NC2NC(=O)OCc1ccco1` (centres unmarked) [Example 44, 2-furanylmethyl (1-methyl-6-phenyl-4H-[1,2,4]triazolo[4,3-a][1,4]benzodiazepin-4-yl)carbamate], for which the “pIC50 in one or more of the BRD2, BRD3 and BRD4 assays” value is on record as no less than 5.0.

One may read the melting point as the temperature of the solid-liquid transition.
